Laboratory results as given in PubChem BioAssay AID602463 (NMMLSC, 2012).

System: DS-PAMPA, 20% ACN buffer, UV absorbance, 30 min
Experiment: passive membrane permeability of hits, cosolvent PAMPA, late-stage follow-up, ADME assay for GPR30 and estrogen receptor ligands, biophysical, double-sink PAMPA, 20% ACN buffer, pH 5.0/6.2/7.4 (AID 602463)
Conditions: stronger effect = higher value

Q: `CC(=O)c1ccc2c(c1)[C@@H]1C=CC[C@@H]1[C@H](c1cc3c(cc1Br)OCO3)N2` was tested. Which permeability pH 7.4 did it give?
A: Its permeability pH 7.4 is 316 10^-6 cm/s.

Q: What about the permeability pH 5.0 (measured here: PAMPA permeability at pH 5.0) of the same compound?
A: The permeability pH 5.0 was 349 10^-6 cm/s.

Q: And the permeability pH 6.2 (measured here: PAMPA permeability at pH 6.2)?
A: Its permeability pH 6.2 is 565 10^-6 cm/s.
